Series [1] deals with T1, Bifunctional epoxide hydrolase 2 (Homo sapiens) (UniProt P34913).
T1 sequence (whole entry): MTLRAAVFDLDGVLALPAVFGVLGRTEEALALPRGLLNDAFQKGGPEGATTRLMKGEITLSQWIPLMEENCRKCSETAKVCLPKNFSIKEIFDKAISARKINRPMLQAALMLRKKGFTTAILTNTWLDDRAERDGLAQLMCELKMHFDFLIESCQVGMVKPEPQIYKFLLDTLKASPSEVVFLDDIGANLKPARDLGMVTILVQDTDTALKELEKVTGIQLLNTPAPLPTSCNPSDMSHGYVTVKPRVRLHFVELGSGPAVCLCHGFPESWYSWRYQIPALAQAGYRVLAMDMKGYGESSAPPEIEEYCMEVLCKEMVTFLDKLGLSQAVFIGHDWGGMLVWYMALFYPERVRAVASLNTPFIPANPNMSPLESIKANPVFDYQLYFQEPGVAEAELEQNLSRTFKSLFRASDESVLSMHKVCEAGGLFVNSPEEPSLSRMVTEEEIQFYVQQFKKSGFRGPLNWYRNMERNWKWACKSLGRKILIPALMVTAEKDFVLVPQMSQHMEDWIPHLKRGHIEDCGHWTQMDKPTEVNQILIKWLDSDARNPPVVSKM
Kind of series: Inhibition of recombinant human sEH at 100 nM using PHOME as substrate measured after 15 mins by fluorescence assay relative to control.

Series [2] deals with T2, Bifunctional epoxide hydrolase 2 (Homo sapiens, UniProt P34913).
T2 sequence (P34913 whole entry): T1 sequence (whole entry)
Kind of series: Inhibition of recombinant human sEH using PHOME as substrate measured after 15 mins by fluorescence assay.

A short description of series [3]: in vitro. As to conditions: Sprague-Dawley, rat, liver microsomes.
Series [4] in a line: in vitro. The conditions noted are these: Sprague-Dawley, rat, liver microsomes. The source holds these as a separate data set.
Description: Stability in Sprague-Dawley rat liver microsomes assessed as parent compound remaining at 10 uM measured after 60 mins in absence of NADPH regenerating system by HPLC analysis
Series [5] can be described thus: in vitro. The conditions noted are these: Sprague-Dawley, rat, liver microsomes. The source holds these as a separate data set. A general note: Liver microsomes are a subcellular fraction often used to study metabolism.
Description: Half life in Sprague-Dawley rat liver microsomes at 10 uM measured up to 60 mins in presence of NADPH regenerating system by HPLC analysis
Series [6] can be described thus: in vitro. The conditions noted are these: Sprague-Dawley, rat, liver microsomes. The source holds these as a separate data set.
Description: Stability in Sprague-Dawley rat liver microsomes assessed as parent compound remaining at 10 uM measured after 60 mins in presence of NADPH regenerating system by HPLC analysis
Series [7] is described as follows: in vitro. As to conditions: Sprague-Dawley, rat, liver microsomes. This is another data set of the same source.

The term inhibition denotes the share of the control response that was lost under treatment. For the compound `Nc1nc2ccc(N(CCN3CCOCC3)C(=O)Nc3ccc(F)cc3)cc2s1`, the inhibition in series [1] came to 74.3%. With `O=C(Cc1ccc(Cl)cc1)Nc1nc2ccc(N(CCN3CCOCC3)C(=O)Nc3ccc(Cl)cc3)cc2s1`, the inhibition in series [1] stood at 71.9%. Same read-out and setting: as for `COc1ccc(CC(=O)Nc2nc3ccc(N(CCN4CCOCC4)C(=O)Nc4ccc(Cl)cc4)cc3s2)cc1F`, the figure is 58.1%. By IC50 is commonly meant the concentration that inhibits the measured activity by half. `Cc1cccc(NC(=O)N(CCN2CCOCC2)c2ccc3nc(N)sc3c2)c1`: in series [1], the inhibition was 61.7%. Also, the half-maximal inhibitory concentration (IC50) in series [2] is 101 nM. `COc1ccc(NC(=O)Nc2ccc3nc(N)sc3c2)cc1`: the inhibition in series [1] worked out at 39.3%. Still for that read-out and setting: in the case of `CC(=O)Nc1ccc2nc(NC(=O)NCc3ccc(Cl)cc3)sc2c1` it was 14.5%; in that of `CN1CCN(C(=O)Nc2nc3ccc(N(CCN4CCOCC4)C(=O)Nc4ccc(Cl)cc4)cc3s2)CC1`, 64%; in that of `CCc1ccc(NC(=O)N(CCN2CCOCC2)c2ccc3nc(NC(=O)Cc4ccccc4)sc3c2)cc1`, 76.8%. Take `Nc1nc2ccc(N(CCN3CCCC3)C(=O)Nc3ccc(Cl)cc3)cc2s1`: the inhibition in series [1] is 48.3%. Same read-out and setting: in the case of `Nc1nc2ccc(NC(=O)Nc3cccc4ccccc34)cc2s1` it was 34.1%. The same measure, in the same setting: in the case of `O=C(Cc1ccccc1)Nc1nc2ccc(N(CCN3CCOCC3)C(=O)Nc3ccc(F)c(Br)c3)cc2s1` it was 74.2%. For `CCc1ccc(NC(=O)N(CCN2CCOCC2)c2ccc3nc(NC(=O)Cc4ccccc4F)sc3c2)cc1`, in series [1], the inhibition was found to be 85.2%. Further, the IC50 in series [2] turned out to be 5.4 nM.

In the case of `CC(=O)Nc1ccc(NC(=O)N(CCN2CCOCC2)c2ccc3nc(N)sc3c2)cc1`, the inhibition in series [1] turned out to be 59.4%. As to `CC(C)c1ccc(NC(=O)N(CCN2CCOCC2)c2ccc3nc(N)sc3c2)cc1`, in series [1], the inhibition stood at 75.2%. In addition, in series [2], the IC50 was found to be 11.2 nM. Regarding `Nc1nc2ccc(NC(=O)Nc3ccc(OC(F)(F)F)cc3)cc2s1`, the inhibition in series [1] was determined as 60.2%. Still for that read-out and setting: in the case of `O=C(Cc1ccc(Cl)cc1Cl)Nc1nc2ccc(N(CCN3CCOCC3)C(=O)Nc3ccc(Cl)cc3)cc2s1` it was 71.8%; in that of `Cc1ccccc1NC(=O)N(CCN1CCOCC1)c1ccc2nc(N)sc2c1`, 26.3%. As to `O=C(Cc1ccccc1F)Nc1nc2ccc(N(CCN3CCOCC3)C(=O)Nc3ccc(Cl)cc3)cc2s1`, in series [1], the inhibition worked out at 82.5%. For the same compound, the IC50 in series [2] was determined as 4.08 nM. On the same counts, the results for `CCc1ccc(NC(=O)N(CCN2CCOCC2)c2ccc3nc(N)sc3c2)cc1` are 84.7% and 1.9 nM. Take `Nc1nc2ccc(N(CCN3CCOCC3)C(=O)Nc3cccc(Cl)c3)cc2s1`: the inhibition in series [1] came out at 36.5%. Same read-out and setting: in the case of `O=C(Nc1nc2ccc(N(CCN3CCOCC3)C(=O)Nc3ccc(Cl)cc3)cc2s1)C1CC1` it was 32.5%; in that of `Nc1nc2ccc(N(CCN3CCOCC3)C(=O)Nc3ccc(Cl)cc3Cl)cc2s1`, 58.4%. Broadly, the microsomal CLint is a measure of how fast metabolising enzymes remove a compound, apart from limits set by blood flow. Low readings indicate slow turnover, high ones rapid turnover. The share remaining is what is left of the initial amount, in per cent. A high value points to less turnover. Usually half-life stands for the time needed for the level to fall by half in the phase considered. In the case of `O=C(O)Cc1ccccc1Nc1c(Cl)cccc1Cl` [DICLOFENAC], the microsomal CLint at 1 h, 10 µM in “in vitro [3]” is 107 µL/min/mg; in “in vitro [7]” it was 59.3 µL/min/mg. In addition, the share remaining at 1 h, 10 µM in “in vitro [4]” came out at 96.3%; in the series “in vitro [6]”, 16.9%. The same compound yielded a half-life at 1 h, 10 µM in “in vitro [5]” of 23.4 min.

On to `CC(=O)c1ccc(NC(=O)N(CCN2CCOCC2)c2ccc3nc(N)sc3c2)cc1`, for which, in series [1], the inhibition worked out at 28.2%. With `Nc1nc2ccc(N(CCN3CCOCC3)C(=O)Nc3ccc(C(F)(F)F)cc3)cc2s1`, the inhibition in series [1] is 62%. Take `Nc1nc2ccc(N(CCN3CCOCC3)C(=O)Nc3cccc4ccccc34)cc2s1`: the inhibition in series [1] turned out to be 39%. In addition, the concentration for half-maximal inhibition (IC50) in series [2] was 151 nM.

On to `Nc1nc2ccc(NC(=O)NC3CCCCC3)cc2s1`, for which, in series [1], the inhibition turned out to be 59.9%. Further, the IC50 in series [2] was 4.1 nM.

As for `NC(=O)Nc1ccc2nc(N)sc2c1`, in series [1], the inhibition was determined as 25.3%.

With `O=C(NCc1ccc(Cl)cc1)Nc1nc2ccc([N+](=O)[O-])cc2s1`, the inhibition in series [1] came out at 10.9%. The same measure, in the same setting: as for `Nc1nc2ccc(N(CCN3CCOCC3)C(=O)NCc3ccc(Cl)cc3)cc2s1`, the figure is 14.5%. Regarding `Nc1nc2ccc(NC(=O)NC34CC5CC(CC(C5)C3)C4)cc2s1`, the inhibition in series [1] stood at 77.3%. For the same compound, in series [2], the IC50 was found to be 822 nM. On the same counts, the results for `CC1CCN(CCN(C(=O)Nc2ccc(Cl)cc2)c2ccc3nc(N)sc3c2)CC1` are 77.5% and 20.2 nM. Take `Nc1nc2ccc(NC(=O)Nc3ccccc3)cc2s1`: in series [1], the inhibition was 40.1%.

In the case of `Nc1nc2ccc(N(CCN3CCOCC3)C(=O)Nc3ccc([N+](=O)[O-])cc3)cc2s1`, the inhibition in series [1] is 19.2%. In the case of `Nc1nc2ccc(N(CCN3CCOCC3)C(=O)Nc3ccc(OC(F)(F)F)cc3)cc2s1`, in series [1], the inhibition turned out to be 61.3%.

As to `Nc1nc2ccc(N(CCN3CCOCC3)C(=O)Nc3ccccn3)cc2s1`, in series [1], the inhibition is 16.2%. On the same count and under the same terms, as for `COc1ccc(CC(=O)Nc2nc3ccc(N(CCN4CCOCC4)C(=O)Nc4ccc(Cl)cc4)cc3s2)cc1`, the figure is 65.8%; as for `Nc1nc2ccc(N(CCN3CCOCC3)C(=O)Nc3ccccc3Cl)cc2s1`, 59.7%. Take `CCN(CC)CCN(C(=O)Nc1ccc(Cl)cc1)c1ccc2nc(N)sc2c1`: in series [1], the inhibition was determined as 86.3%. The IC50 in series [2] turned out to be 24.5 nM. `O=C(Cc1ccc(Br)cc1)Nc1nc2ccc(N(CCN3CCOCC3)C(=O)Nc3ccc(Cl)cc3)cc2s1`: the inhibition in series [1] was 70.6%.

As to `O=C(Nc1nc2ccc(N(CCN3CCOCC3)C(=O)Nc3ccc(Cl)cc3)cc2s1)c1ccc(F)cc1`, the inhibition in series [1] amounted to 64%. Still for that read-out and setting: in the case of `Nc1nc2ccc(N(CCN3CCOCC3)C(=O)Nc3cccc(C(F)(F)F)c3)cc2s1` it was 6.18%. As for `CC(C)Oc1ccc(NC(=O)N(CCN2CCOCC2)c2ccc3nc(N)sc3c2)cc1`, in series [1], the inhibition was 56.6%. The IC50 in series [2] came out at 122 nM. Turning to `Cc1ccc(NC(=O)N(CCN2CCOCC2)c2ccc3nc(N)sc3c2)cc1`, in series [1], the inhibition stood at 73.1%. Besides, the IC50 in series [2] worked out at 8.3 nM. With `Nc1ccc2nc(NC(=O)NCc3ccc(Cl)cc3)sc2c1`, in series [1], the inhibition was 14.2%. The same measure, in the same setting: as for `CN(C)CCN(C(=O)Nc1ccc(Cl)cc1)c1ccc2nc(N)sc2c1`, the figure is 39.1%.

`Nc1nc2ccc(NC(=O)Nc3ccccn3)cc2s1`: the inhibition in series [1] came to 20.5%. Take `Nc1nc2ccc(N(CCN3CCCCC3)C(=O)Nc3ccc(Cl)cc3)cc2s1`: in series [1], the inhibition was 84.6%. Also, the IC50 in series [2] turned out to be 6.5 nM. Consider `O=C(Cc1ccccc1F)Nc1nc2ccc(N(CCN3CCOCC3)C(=O)Nc3ccc(F)c(Br)c3)cc2s1`, for which the inhibition in series [1] was 73.8%. In the case of `O=C(Nc1nc2ccc(N(CCN3CCOCC3)C(=O)Nc3ccc(Cl)cc3)cc2s1)c1ccccc1`, in series [1], the inhibition was 48.8%. The same measure, in the same setting: in the case of `O=C(Nc1ccc(Cl)cc1)Nc1nc2ccc([N+](=O)[O-])cc2s1` it was 7.2%; in that of `CC(=O)Nc1ccc2nc(NC(=O)Nc3ccc(Cl)cc3)sc2c1`, 12.5%; in that of `CC(=O)Nc1nc2ccc(N(CCN3CCOCC3)C(=O)Nc3ccc(Cl)cc3)cc2s1`, 68.1%. Same read-out and setting: in the case of `O=C(Cc1ccc(F)cc1)Nc1nc2ccc(N(CCN3CCOCC3)C(=O)Nc3ccc(Cl)cc3)cc2s1` it was 74.9%; in that of `Nc1ccc2nc(NC(=O)Nc3ccc(Cl)cc3)sc2c1`, 6.7%. Still for that read-out and setting: as for `Nc1nc2ccc(NC(=O)NCc3ccc(Cl)cc3)cc2s1`, the figure is 47%. As to `O=C(Nc1ccc(Cl)cc1)Nc1nc2ccc(NCCN3CCOCC3)cc2s1`, in series [1], the inhibition amounted to 16.2%. Turning to `Nc1nc2ccc(NC(=O)Nc3ccc(Cl)cc3)cc2s1`, the inhibition in series [1] was found to be 76.1%. Moreover, the half-inhibitory concentration (IC50) in series [2] came out at 10.1 nM. With `CN1CCN(CCN(C(=O)Nc2ccc(Cl)cc2)c2ccc3nc(N)sc3c2)CC1`, the inhibition in series [1] was found to be 45.9%. On to `Nc1nc2ccc(N(CCN3CCOCC3)C(=O)Nc3ccc(Br)cc3)cc2s1`, for which the inhibition in series [1] came to 83.8%. Also, in series [2], the IC50 came to 16.2 nM. For `O=C(CCc1ccccc1)Nc1nc2ccc(N(CCN3CCOCC3)C(=O)Nc3ccc(Cl)cc3)cc2s1`, the inhibition in series [1] turned out to be 77.7%. As to `Nc1nc2ccc(N(CCN3CCOCC3)C(=O)Nc3ccccc3)cc2s1`, the inhibition in series [1] was determined as 40.4%. On the same count and under the same terms, in the case of `Nc1nc2ccc(N(CCCN3CCOCC3)C(=O)Nc3ccc(Cl)cc3)cc2s1` it was 9.44%.
